According to publication PMC9641054, “Antimicrobial activity of cationic antimicrobial peptides against stationary phase bacteria” (Frontiers in Microbiology, 2022):
Converted amounts (≈) assume the structure as drawn. No end group written: not given here.

Experiments:
Type in all cases: cell-based
[1] = tested on: Escherichia coli K12; assay: Killing experiment at 10x MIC, fast-growing (exponential) versus stationary phase bacteria in spent medium; details: for Killing of stationary phase bacteria at 24 h (in words) / Killing of stationary phase bacteria at 4 h (in words): stationary phase in spent medium; for Killing fold-change 4 h (median) / Killing fold-change 24 h: E. coli K12, exponentially growing versus stationary phase cultures, 10x MIC, ~2 × 10^6 CFU/ml, 37°C, five independent cultures
Protocol: (§1) For exponentially growing bacteria, five independent cultures per treatment were diluted 1:100 from a 16-h overnight culture (by adding 100 μl to 10 ml of MHB medium in 50 ml Falcon tubes). Then, the bacteria were grown for 2 h for E. coli and 2.5 h for S. aureus, to reach approximately 2 × 10^8 CFU/ml. The cultures were then diluted 1/100 in fresh medium to reach approximately 2 × 10^6 CFU/ml. […] Volumes of 100 μl-sample were extracted at 4 and 24 h. The aliquots were diluted and plated to determine cell viability. Non-treated cells were used as a control. All incubations took place at 37°C with shaking.
(§2) In order to maintain bacteria in their non-dividing state, we generated a medium to carry out the killing assays. From the supernatant of 500 ml of 48-h culture from each bacterium, the cells were pelleted at 4000 ×g for 30 min. The pH of each culture was adjusted to match the original pH of 7.2. To remove additional cell debris, flagella rest and outer membrane vesicles that could potentially interfere with the activity of AMPs ([Manning and Kuehn, 2011]), the supernatants were ultracentrifuged at 100000 ×g during 16 h at + 4°C. Thereafter, 250 ml of the supernatant from each flask was carefully recovered, without perturbing the pellet, and aseptically filtrated using 0.22 μm syringe filters and 40 ml were transferred to sterile 50 ml-falcon tubes, that were stored at −20°C until use. We refer to this medium as spent medium.
(§3) For stationary phase bacteria, five independent cultures per treatment were used. Bacteria from 48-h cultures containing approximately 3 × 10^9 CFU/ml for E. coli and 2 × 10^9 CFU/ml for S. aureus were diluted in spent medium (see preparation above) to a final cell density of 2×10^6 CFU/ml. Then, the bacteria were treated identically to the fast-growing bacteria killing experiment described above.
(§4) Statistical testing and plots were done in R version 3.3.2 ([R Core Team, 2017]), using Rstudio version 1.0.143 ([R Development Core Team, 2015]). To compare killing rates between bacteria growing in exponential and stationary phase for each antimicrobial after 4 and 24 h of exposure, a Welch’s t-test was used. Values below the detection limit (zero colony counts) were imputed for statistical purposes assigning a value of 1.

[2] = tested on: Staphylococcus aureus SH1000; assay: as above; details: for Killing of stationary phase bacteria at 24 h (in words) / Killing of stationary phase bacteria at 4 h (in words): stationary phase in spent medium; for Killing fold-change 4 h (median) / Killing fold-change 24 h: S. aureus SH1000, exponentially growing versus stationary phase cultures, 10x MIC, ~2 × 10^6 CFU/ml, 37°C, five independent cultures
Protocol: as §1, §2, §3, §4

[3] = tested on: Escherichia coli K12; assay: microbe, parasite or virus in culture; details: for MIC: Escherichia coli, K12, read-out: MIC E. coli K12
Protocol: (§5) The Escherichia coli K12 from Yale University Microbial Stock Center and Staphylococcus aureus SH1000 ([Horsburgh et al., 2002]) were used for all experiments. All cultures related to antimicrobial tests and experiments were carried out in Mueller-Hinton I broth (Sigma) devoid of cations. Both strains were routinely cultured in Lysogeny Broth (LB medium).
(§6) The minimal inhibitory concentration for each antimicrobial were determined according to CLSI recommendations by the microdilution method ([CLSI, 2018]) with minor modifications for antimicrobial peptides ([Giacometti et al., 2000]). For comparison, we kept these modifications also for antibiotics. Inoculum size that was adjusted to approximately 1 × 10^6 CFU/ml from a 2-h mid-exponential phase obtained by diluting 100 μl of overnight cultures in 10 ml of fresh medium in 50 ml Falcon tubes. The MIC was defined as the minimal antimicrobial concentration that inhibited growth, after 24 h of incubation in liquid MHB medium at 37°C. Polypropylene non-binding plates (96 wells, Th. Geyer, Germany) were used for all experiments.

[4] = tested on: Staphylococcus aureus SH1000; assay: microbe, parasite or virus in culture; details: for MIC: Staphylococcus aureus, SH1000, read-out: MIC S. aureus SH1000
Protocol: as §5, §6

[5] = microdilution, inoculum ~1 × 10^6 CFU/ml mid-exponential phase, MHB devoid of cations, 24 h, 37°C, polypropylene non-binding plates

Row | Molecule | Killing of stationary phase bacteria at 24 h (in words) ([1]; E. coli, 10 × MIC) | Killing of stationary phase bacteria at 24 h (in words) ([2]; S. aureus, 10 × MIC) | MIC E. coli K12 ([3]; K12, 24 h) [µg/mL] | MIC S. aureus SH1000 ([4]; SH1000, 24 h) [µg/mL] | Killing fold-change 4 h (median) [1] | Killing fold-change 24 h [1] | Killing of stationary phase bacteria at 4 h (in words) ([1]; E. coli, 10 × MIC) | Killing fold-change 4 h (median) [2] | Killing fold-change 24 h [2] | Killing of stationary phase bacteria at 4 h (in words) ([2]; S. aureus, 10 × MIC) | MIC E. coli K12 [3, 5] [µg/mL] | MIC S. aureus SH1000 [4, 5] [µg/mL] | Killing of bacterial cultures (in words) ([1]; E. coli, 10 × MIC, fast and slow-replicating bacteria, both time-points 4 and 24 h) | Killing of bacterial cultures (in words) ([2]; S. aureus, 10 × MIC, fast and slow-replicating bacteria, both time-points 4 and 24 h) | MIC [3, 5] [µg/mL] | MIC [4, 5] [µg/mL]
1 | O=C(O)c1cn(C2CC2)c2cc(N3CCNCC3)c(F)cc2c1=O [Ciprofloxacin] | reduced microbial count for both models with a significantly lower efficacy than killing fast-replicating cultures | reduced microbial count for both models with a significantly lower efficacy than killing fast-replicating cultures |  |  |  |  |  |  |  |  |  |  |  |  |  | 
2 | GIGKFLKKAKKFGKAFVKILKK-NH2 (C-terminus assumed) [Pexiganan] |  |  | 4 | 8 | 2.53 | 1 | some delay in killing | 1.14 | 1 | some delay in killing |  |  |  |  |  | 
3 | KWKLFKKIEKVGQNIRDGIIKAGPAVAVVGQATQIAK-NH2 (C-terminus assumed) [Cecropin A] |  |  |  |  | 1.21 | 27 | some delay in killing | 1.30 | 0.22 | some delay in killing |  |  |  |  |  | 
4 | CC[C@H](C)[C@H](N)C(=O)N[C@@H](CC(C)C)C(=O)N1CCC[C@H]1C(=O)N[C@@H](Cc1c[nH]c2ccccc12)C(=O)N[C@@H](CCCCN)C(=O)N[C@@H](Cc1c[nH]c2ccccc12)C(=O)N1CCC[C@H]1C(=O)N[C@@H](Cc1c[nH]c2ccccc12)C(=O)N[C@@H](Cc1c[nH]c2ccccc12)C(=O)N1CCC[C@H]1C(=O)N[C@@H](Cc1c[nH]c2ccccc12)C(=O)N[C@@H](CCCNC(=N)N)C(=O)N[C@@H](CCCNC(=N)N)C(N)=O [Indolicidin] |  |  |  |  |  | 1 |  |  | 1 |  | 16 (≈ 8.39 µM) | 8 (≈ 4.2 µM) | completely killing | completely killing |  | 
5 | CC[C@H](C)[C@H](NC(=O)[C@H](CCCCN)NC(=O)[C@H](CCC(=O)O)NC(=O)[C@H](CCCCN)NC(=O)[C@H](CO)NC(=O)[C@H](CCCCN)NC(=O)[C@H](CCCNC(=N)N)NC(=O)[C@H](Cc1ccccc1)NC(=O)[C@H](Cc1ccccc1)NC(=O)[C@H](CC(=O)O)NC(=O)CNC(=O)[C@H](CC(C)C)NC(=O)[C@@H](N)CC(C)C)C(=O)NCC(=O)N[C@@H](CCCCN)C(=O)N[C@@H](CCC(=O)O)C(=O)N[C@@H](Cc1ccccc1)C(=O)N[C@@H](CCCCN)C(=O)N[C@@H](CCCNC(=N)N)C(=O)N[C@H](C(=O)N[C@H](C(=O)N[C@@H](CCC(N)=O)C(=O)N[C@@H](CCCNC(=N)N)C(=O)N[C@H](C(=O)N[C@@H](CCCCN)C(=O)N[C@@H](CC(=O)O)C(=O)N[C@@H](Cc1ccccc1)C(=O)N[C@@H](CC(C)C)C(=O)N[C@@H](CCCNC(=N)N)C(=O)N[C@@H](CC(N)=O)C(=O)N[C@@H](CC(C)C)C(=O)N[C@H](C(=O)N1CCC[C@H]1C(=O)N[C@@H](CCCNC(=N)N)C(=O)N[C@H](C(=O)N[C@@H](CCC(=O)O)C(=O)N[C@@H](CO)C(=O)O)[C@@H](C)O)C(C)C)[C@@H](C)CC)C(C)C)[C@@H](C)CC [LL-37] |  |  |  |  | 3.71 | 1 | some delay in killing | 0.66 | 1 | some delay in killing | 4 (≈ 0.89 µM) | 8 (≈ 1.78 µM) |  |  |  | 
6 | CC[C@H](C)[C@H](NC(=O)CN)C(=O)NCC(=O)N[C@@H](C)C(=O)N[C@H](C(=O)N[C@@H](CC(C)C)C(=O)N[C@@H](CCCCN)C(=O)N[C@H](C(=O)N[C@@H](CC(C)C)C(=O)N[C@H](C(=O)N[C@H](C(=O)NCC(=O)N[C@@H](CC(C)C)C(=O)N1CCC[C@H]1C(=O)N[C@@H](C)C(=O)N[C@@H](CC(C)C)C(=O)N[C@H](C(=O)N[C@@H](CO)C(=O)N[C@@H](Cc1c[nH]c2ccccc12)C(=O)N[C@H](C(=O)N[C@@H](CCCCN)C(=O)N[C@@H](CCCNC(=N)N)C(=O)N[C@@H](CCCCN)C(=O)N[C@@H](CCCNC(=N)N)C(=O)N[C@@H](CCC(N)=O)C(=O)N[C@@H](CCC(N)=O)C(N)=O)[C@@H](C)CC)[C@@H](C)CC)[C@@H](C)O)[C@@H](C)O)C(C)C)C(C)C [Melittin] |  |  |  |  |  |  | some delay in killing |  | 17 | some delay in killing | 2 (≈ 0.703 µM) | 2 (≈ 0.703 µM) |  |  |  | 
7 | CC1(C)S[C@@H]2[C@H](NC(=O)[C@H](N)c3ccccc3)C(=O)N2[C@H]1C(=O)O [Ampicillin] | poor killing capacity | poor killing capacity |  |  | 595.18 | 4,150,000 | did not kill | 13087.25 | 4,470,000 | did not kill |  |  |  |  | 2 (≈ 5.72 µM) | 4 (≈ 11.4 µM)
8 | CNC(C)C1CCC(N)C(OC2C(N)CC(N)C(OC3OCC(C)(O)C(NC)C3O)C2O)O1 (centres unmarked) [Gentamicin] | reduced microbial count for both models with a significantly lower efficacy than killing fast-replicating cultures | reduced microbial count for both models with a significantly lower efficacy than killing fast-replicating cultures |  |  | 10380.62 | 317,000 |  | 8508.47 | 2,890,000 |  |  |  |  |  | 1 (≈ 2.09 µM) | 4 (≈ 8.38 µM)
